From PubChem BioAssay (NCI) come the findings set out here.

Structures are written as SMILES.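 48-hour exposure; five concentrations; linearly interpolated endpoints. The concentration for 50% growth inhibition is given as GI50. TGI denotes the concentration required for complete inhibition of growth.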

Some test systems named below: UACC-62 melanoma; NCI-H226 lung; SK-MEL-28 melanoma; NCI-H23 lung; IGROV1 ovarian; HOP-92 NSCLC; SF-295 CNS; RPMI-8226 leukemia; A549 NSCLC; COLO 205 colon.
Common to all, as to test: inhibition of tumour cell growth, NCI panel, 48 h

In the case of `C=C1C(=O)OC2/C=C(\CO)C3OC3C3OC3(C)CC(OC(=O)/C(=C/C)COC(C)=O)C12` (stereo unspecified), the TGI in the test on UACC-62 melanoma was 6.2 µM; with NCI-H226 lung, 40.8 µM; in the test with SK-MEL-28 melanoma, 3.72 µM; in the test with NCI-H23 lung, 21.7 µM; in the test with IGROV1 ovarian, 29.5 µM; with HOP-92 NSCLC it was 4.35 µM. The TGI in the test with SF-295 CNS is 46.7 µM; in the test with RPMI-8226 leukemia it was above 100 µM; in the test on A549 NSCLC, 36.9 µM; in the test with COLO 205 colon, 3.06 µM.

As to `O=C1Nc2ccccc2C1(O)Cc1ccccn1` (stereo unspecified), the TGI in the test on UACC-62 melanoma, with NCI-H226 lung, in the test with SK-MEL-28 melanoma, with NCI-H23 lung, in the test on IGROV1 ovarian and in the test with HOP-92 NSCLC was above 100 µM each time. Moreover, the TGI in the test on SF-295 CNS, with RPMI-8226 leukemia, in the test on A549 NSCLC and in the test with COLO 205 colon was above 100 µM each time.

In the case of `CSc1nc2c(ncn2C2OC(CO)C(O)C(O)C2O)c(=O)n1C` (stereo unspecified), the TGI in the test on UACC-62 melanoma, with NCI-H226 lung, in the test on SK-MEL-28 melanoma, in the test on NCI-H23 lung, with IGROV1 ovarian and with HOP-92 NSCLC was above 100 µM each time. Besides, the TGI in the test with SF-295 CNS, with RPMI-8226 leukemia, with A549 NSCLC and with COLO 205 colon was above 100 µM throughout.

On to `COc1ccc2[nH]c(=O)cc(C)c2c1[N+](=O)[O-]`, for which the TGI in the test with UACC-62 melanoma, in the test on NCI-H226 lung, in the test with SK-MEL-28 melanoma, with NCI-H23 lung, in the test with IGROV1 ovarian and in the test on HOP-92 NSCLC was above 100 µM each time. Also, the TGI in the test on SF-295 CNS, with RPMI-8226 leukemia, in the test on A549 NSCLC and in the test with COLO 205 colon was above 100 µM throughout.

With `C=CCn1c(C)nc2cc(Nc3nc(N4CCCC4)nc4nc[nH]c34)ccc21`, the GI50 with UACC-62 melanoma, in the test on NCI-H226 lung, with NCI-H23 lung, with IGROV1 ovarian, in the test on HOP-92 NSCLC and in the test with SF-295 CNS was above 100 µM each time. In addition, the GI50 in the test on RPMI-8226 leukemia is above 100 µM; with COLO 205 colon, 3.16 µM. For the same compound, the TGI in the test with UACC-62 melanoma, with NCI-H226 lung, in the test on NCI-H23 lung, with IGROV1 ovarian, in the test on HOP-92 NSCLC and in the test on SF-295 CNS was above 100 µM each time. Moreover, the TGI in the test with RPMI-8226 leukemia and in the test on COLO 205 colon was above 100 µM each time.

As for `O=c1c2cc([N+](=O)[O-])ccc2[nH]n1Cc1ccccc1Cl`, the TGI in the test on UACC-62 melanoma was above 100 µM; in the test on NCI-H226 lung it was above 100 µM; with SK-MEL-28 melanoma, above 100 µM; with NCI-H23 lung it was above 100 µM; in the test on IGROV1 ovarian, above 100 µM; in the test on HOP-92 NSCLC, 93.9 µM. The TGI in the test with SF-295 CNS is above 100 µM; in the test with RPMI-8226 leukemia, 95.2 µM; in the test with A549 NSCLC, above 100 µM; in the test with COLO 205 colon, above 100 µM.

In the case of `Nc1nc2cc(COc3ccc(C(=O)O)cc3)ccc2nc1-c1ccccc1`, the TGI with UACC-62 melanoma, with NCI-H226 lung, in the test on SK-MEL-28 melanoma, with NCI-H23 lung, in the test on IGROV1 ovarian and with HOP-92 NSCLC was above 10 µM throughout. Moreover, the TGI in the test on SF-295 CNS, in the test on RPMI-8226 leukemia, with A549 NSCLC and in the test on COLO 205 colon was above 10 µM each time.

`Cc1c2cnccc2c(C)c2c1c1ccccc1n2CCCCCCCl`: the TGI in the test with UACC-62 melanoma was above 50 µM; in the test on NCI-H226 lung, above 46.7 µM; with SK-MEL-28 melanoma, above 50 µM; with NCI-H23 lung it was above 50 µM; in the test on IGROV1 ovarian, above 50 µM; with HOP-92 NSCLC it was above 50 µM. For the same compound, the TGI is above 50 µM with SF-295 CNS, above 48.9 µM in the test with RPMI-8226 leukemia, above 50 µM with A549 NSCLC and above 34.1 µM in the test on COLO 205 colon.

Regarding `CC1=CC2=C(C=O)C(=O)[C@](C)(O)[C@@H](O)C2=CO1`, the TGI in the test on UACC-62 melanoma was 71.5 µM; in the test on NCI-H226 lung, 65.4 µM; in the test with SK-MEL-28 melanoma, above 78.1 µM; with NCI-H23 lung, above 100 µM; in the test with IGROV1 ovarian, above 100 µM; with HOP-92 NSCLC, above 100 µM. The TGI is above 100 µM with SF-295 CNS, 47.1 µM in the test with RPMI-8226 leukemia, above 90.8 µM in the test with A549 NSCLC and above 82 µM in the test on COLO 205 colon.

Take `CS(C)(=O)=Nn1c(=O)n2n(c1=O)[C@H]1CC[C@@H]2C1`: the TGI with UACC-62 melanoma, with NCI-H226 lung, in the test with SK-MEL-28 melanoma, in the test with NCI-H23 lung, in the test with IGROV1 ovarian and in the test on HOP-92 NSCLC was above 100 µM throughout. Moreover, the TGI in the test with SF-295 CNS, in the test on RPMI-8226 leukemia, in the test with A549 NSCLC and in the test with COLO 205 colon was above 100 µM in each case.

As for `COc1cc(C2c3cc4c(cc3[C@@H](Nc3cnc5ccccc5c3)C3COC(=O)[C@H]23)OCO4)cc(OC)c1O` (stereo partly specified), the TGI in the test with UACC-62 melanoma stood at 2.06 µM; with NCI-H226 lung it was 1.23 µM; with SK-MEL-28 melanoma it was 3.85 µM; in the test with NCI-H23 lung, 2.02 µM; with IGROV1 ovarian it was 10.4 µM; with HOP-92 NSCLC it was 2.81 µM. The TGI in the test on SF-295 CNS is 1.14 µM; in the test on RPMI-8226 leukemia, 1.9 µM; in the test with A549 NSCLC, 0.789 µM; with COLO 205 colon it was 3.39 µM.

Turning to `O=C(N/N=C/c1cc(Cl)cc(Cl)c1[O-])c1ccccc1O.O=C(N/N=C/c1cc(Cl)cc(Cl)c1[O-])c1ccccc1O.[Mn+2]`, the TGI with UACC-62 melanoma was 0.804 µM; in the test with NCI-H226 lung it was 6.59 µM; in the test with SK-MEL-28 melanoma it was 12.1 µM; in the test on NCI-H23 lung, 6.31 µM; in the test on HOP-92 NSCLC, 3.33 µM; with SF-295 CNS, 11.8 µM. The same compound gave a TGI with A549 NSCLC of 11.6 µM. In addition, the GI50 in the test with NCI-H23 lung was 0.301 µM; with HOP-92 NSCLC it was 0.429 µM; in the test on A549 NSCLC it was 0.377 µM.

Take `O=C1Sc2sc(=S)sc2SC1c1ccccc1` (stereo unspecified): the TGI is 57.2 µM in the test on UACC-62 melanoma; above 100 µM in the test on NCI-H226 lung; above 64.8 µM in the test on SK-MEL-28 melanoma; above 100 µM in the test with NCI-H23 lung; above 100 µM with IGROV1 ovarian; above 82.4 µM with HOP-92 NSCLC. In addition, the TGI with SF-295 CNS was above 100 µM; in the test with RPMI-8226 leukemia it was above 100 µM; in the test on A549 NSCLC, above 100 µM; with COLO 205 colon, above 63.6 µM.
